Source: EPA's ToxValDB 9.5 (doi:10.2903/j.efsa.2014.3677)
≈ marks a conversion by molar mass, not a printed value. Where “and” joins values, the source holds several entries; their conditions need not be identical. Equal entries are not always repeated.

Assays:
[1] = tested on: Anas platyrhynchos
[2] = tested on: Apis mellifera; conditions: acute, mortality
[3] = tested on: Bibionidae; conditions: chronic/long-term; duration: 28 days
[4] = tested on: Canidae; conditions: chronic; duration: 1 years; oral; Dog Other; clinical signs
[5] = tested on: Colinus virginianus; conditions: acute; oral; diet
[6] = tested on: Folsomia candida; conditions: chronic/long-term
[7] = tested on: Hyalella azteca; conditions: acute; duration: 48 hours; mortality
[8] = tested on: Leuciscus idus; conditions: acute; duration: 96 hours; mortality
[9] = tested on: Mus musculus; conditions: acute; oral
[10] = tested on: Neomysis kadiakensis; conditions: chronic/long-term; duration: 28 days
[11] = tested on: Pimephales promelas; conditions: chronic/long-term; duration: 300 days
[12] = tested on: Plant; conditions: not reported
[13] = tested on: Rattus norvegicus; conditions: reproduction developmental; body weight
[14] = tested on: Tagia sp.
[15] = tested on: Aphidius rhopalosiphi; experiment: LR50; higher = less toxic; conditions: not reported; mortality
[16] = tested on: Typhlodromus pyri; experiment: LR50; higher = less toxic; conditions: not reported; mortality

CC1(C)[C@H](/C=C(\Cl)C(F)(F)F)[C@@H]1C(=O)O[C@@H](C#N)c1cccc(Oc2ccccc2)c1 [lambda-Cyhalothrin]
LD50 ([1]; acute, oral, unspecified): 3950 mg/kg-day | NOEC ([1]; reproductive): 3.3 mg/kg-day | LD50 ([2]; dermal): 0.038 µg/piece | LD50 ([2]; oral, unspecified): 0.91 µg/piece | NOEC [3]: 0.13 µg/L | NOAEL [4]: 0.5 mg/kg-day | LD50 [5]: > 530 mg/kg-day | NOEC [6]: 2.73 mg/kg | LC50 [7]: 0.0019 ng/mL (≈ 0.00422 nM) | LC50 [8]: 0.078 ng/mL (≈ 0.173 nM) | LD50 [9]: 20 mg/kg-day | NOEC [10]: 0.00022 µg/L | NOEC [11]: 0.031 µg/L | NOEC [12]: 7.5 g/ha | NOAEL [13]: 0.5 mg/kg-day and 0.25 mg/kg-day | LC50 ([14]; acute, mortality): > 500 mg/kg | NOEC ([14]; chronic/long-term): 3.12 mg/kg | LR50 [15]: 1.06 g/ha | LR50 [16]: 0.0037 g/ha
